PubChem BioAssay AID1053192 (Broad Institute, 2014)
Results filed as inconclusive are left out. Calls of active or inactive are those of the source.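 How the source made its calls: active means cytotoxic compounds whose falling curve has a midpoint dose at most twice the top valid dose; inconclusive means flat fit losing 30 to 70% signal, or poor fit; inactive means the rest.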

Tested on: not listed separately
Assay: viability loss in HepG2 hepatoma cells – cell-based, CellTiter-Glo luminescence, 72 h, dry powder, cytotoxicity control, dose response (AID 1053192)
Conditions: HepG2 viability, CellTiter-Glo ATP luminescence, 72 h; at 50 µM (top of the series)
For `Cc1cccc(NC(=O)NCc2ccc3c(c2)cc(C)n3C)c1`, the activity change, negative = cytotoxicity was -2.27% (inactive). With `CCc1cccc2c1NC1(CCCC1)CC2C` (configuration not stated) the activity change, negative = cytotoxicity was -13.5% (inactive). With `Cc1cc2ccccc2n1CCNC(=O)COc1ccc2ccccc2c1` the activity change, negative = cytotoxicity was 21.7% (inactive). For `Cc1ccc(CSc2nc3[nH]ncc3c(=O)[nH]2)cc1`, the activity change, negative = cytotoxicity was -34.4% (inactive). In the case of `Cc1ccc(S(=O)(=O)NCc2ccc3c(c2)cc(C)n3C)cc1`, the activity change, negative = cytotoxicity is reported as -22.2% (inactive). With `Cc1cc2cc(CNC(=O)Nc3ccc(Cl)c(Cl)c3)ccc2n1C` the activity change, negative = cytotoxicity was -3.46% (inactive). With `COc1ccc(Nc2ccccc2N)cc1` the activity change, negative = cytotoxicity was 4.91% (inactive). In the case of `Cc1cc(C)c(S(=O)(=O)NCCn2c(C)cc3ccccc32)c(C)c1`, the activity change, negative = cytotoxicity is reported as 18.2% (inactive). With `O=C(O)C1CCN(c2nc(-c3ccccc3)c3cc(Br)ccc3n2)CC1` the activity change, negative = cytotoxicity was 1.7% (inactive). With `O=C(c1c(F)cccc1F)N(Cc1ccccc1)Cc1ccccc1` the activity change, negative = cytotoxicity was -4.81% (inactive). For `CNc1ccccc1C(C)(C)c1cc(-c2cccc(OC)c2)no1`, the activity change, negative = cytotoxicity was -1.6% (inactive).

Tested on: HepG2 viability, CellTiter-Glo ATP luminescence, 72 h
Assay: as above
Conditions: not given
`OCc1ccc(-c2nn(Cc3ccccc3)c3ccccc23)o1` showed an AC50 of 8.07 µM.
